Test results as given in PMC10300798, “Alternative Enzyme Inhibition Assay for Safety Evaluation of Food Preservatives” (Life, 2023).

Tests used:
Assay type in all cases: biochemical
trypsin (Try) = target: T1, trypsin (Try) (Sus scrofa, UniProt P00761); test: BAEE hydrolysis, absorbance […] nm; conditions: read-out: Potassium Sorbate / IC50 (converted)
T1 construct: native, from porcine pancreas, lyophilized, 1300 BAEE U/mg (Sigma-Aldrich)

[1] = target: T2, alcohol dehydrogenase (ADH) (Saccharomyces cerevisiae, UniProt P00330); test: spectrophotometric NAD+ reduction, […] nm; conditions: read-out: Potassium Sorbate / IC20
T2 construct: gene ADH1
T2 sequence (P00330 2-348): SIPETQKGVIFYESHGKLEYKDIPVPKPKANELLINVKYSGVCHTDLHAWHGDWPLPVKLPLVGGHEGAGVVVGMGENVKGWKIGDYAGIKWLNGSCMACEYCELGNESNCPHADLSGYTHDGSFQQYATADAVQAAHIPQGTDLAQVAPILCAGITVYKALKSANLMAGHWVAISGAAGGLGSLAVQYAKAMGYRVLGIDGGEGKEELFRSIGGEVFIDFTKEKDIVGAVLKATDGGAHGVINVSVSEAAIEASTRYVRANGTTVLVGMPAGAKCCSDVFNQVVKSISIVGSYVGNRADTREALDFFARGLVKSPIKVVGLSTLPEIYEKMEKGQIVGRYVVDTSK

[2] = target: T3, lactate dehydrogenase (LDH) (Oryctolagus cuniculus, UniProt P13491); test: spectrophotometric NAD+ reduction, […] nm; conditions: read-out: Sodium Benzoate / IC20
T3 construct: gene LDHA

T1 sequence (P00761 9-231): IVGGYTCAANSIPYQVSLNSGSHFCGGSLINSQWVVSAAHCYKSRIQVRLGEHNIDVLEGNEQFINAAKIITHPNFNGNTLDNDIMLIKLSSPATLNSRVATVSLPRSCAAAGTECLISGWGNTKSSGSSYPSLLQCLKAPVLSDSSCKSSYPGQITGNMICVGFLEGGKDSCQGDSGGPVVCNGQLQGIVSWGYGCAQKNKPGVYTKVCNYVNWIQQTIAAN

SMILES | IC50 (trypsin (Try)) | IC20 [1] | IC20 [2]
C/C=C/C=C/C(=O)O [potassium sorbate] | 134 µM | > 5000 µg/mL | –
O=C(O)c1ccccc1 [sodium benzoate] | – | – | 2200 ± 321 µg/mL
